Data reported in patent US10981932B2, “Macrocyclic indole derivatives” (Bayer Aktiengesellschaft, priority 2016, dated 2021).
Structures can show the parent of a compound that is named as a salt. Where two headings read alike, the source gives them in different places.

What was measured:
[1] = system: SUDHL5; test: Anti-proliferative effect (CellTiter-Glo, 72 h), SUDHL5; type: cell-based; conditions: SUDHL5 cells, antiproliferation, 72 h incubation, median, read-out: Antiproli SUDHL5 [M] (median)
In short: (§1)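 CellTiter-Glo luminescence readout of viability, taken on a time-zero plate at day 0 and on treated plates after 72 h incubation at 37 °C in a humidified incubator. Reagent incubation 10 min before reading.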

[2] = system: SUDHL10; test: Induction of caspase-3/7 activity (Caspase-Glo 3/7), SUDHL10; type: cell-based; conditions: caspase-3/7 induction, SUDHL10 cells, 3 h treatment, median
In short: (§2)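 Caspase-Glo 3/7 luminescence measured after 3 h compound exposure at 37 °C in SUDHL10 and SUDHL5 cells. EC50 values come from background-corrected signals, with curve bottom set to 1 and plateau set to maximal induction by the reference compound.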

[3] = system: A2780; test: Anti-proliferative effect (CellTiter-Glo, 72 h), A2780; type: cell-based; conditions: A2780 cells, median, read-out: IC50 antiproliferation assay A2780 [M] (median)
In short: as §1

[4] = system: SUDHL5; test: Induction of caspase-3/7 activity (Caspase-Glo 3/7), SUDHL5; type: cell-based; conditions: caspase-3/7 induction, SUDHL5 cells, 3 h treatment, median
In short: as §2

[5] = system: SUDHL10; test: Anti-proliferative effect (CellTiter-Glo, 72 h), SUDHL10; type: cell-based; conditions: SUDHL10 cells, antiproliferation, 72 h incubation, median, read-out: Antiproli SUDHL10 [M] (median)
In short: as §1

[6] = system: SUDHL5; test: Induction of cytotoxicity (CellTiter-Glo, 5 h), SUDHL5
[7] = molecular target: MCL-1 (Homo sapiens, UniProt Q07820); test: Protein-protein interaction assay MCL-1/Noxa BH3 peptide (MCL-1 assay), TR-FRET; type: binding; conditions: MBP-MCL-1 / Noxa BH3-derived peptide, median
Chain of MCL-1 (Q07820 whole entry): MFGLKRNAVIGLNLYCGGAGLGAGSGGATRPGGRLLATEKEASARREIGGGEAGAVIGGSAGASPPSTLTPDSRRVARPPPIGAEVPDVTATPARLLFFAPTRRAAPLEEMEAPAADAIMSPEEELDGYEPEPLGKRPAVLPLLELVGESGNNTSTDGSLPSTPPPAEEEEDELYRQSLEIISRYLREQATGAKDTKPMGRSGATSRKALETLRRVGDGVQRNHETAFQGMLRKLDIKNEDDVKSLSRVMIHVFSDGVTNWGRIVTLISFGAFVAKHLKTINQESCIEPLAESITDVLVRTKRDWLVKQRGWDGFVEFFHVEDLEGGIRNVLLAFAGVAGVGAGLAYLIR
In short: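 MBP-MCL-1 (1 nM final) was preincubated 10 min at 22 °C with compounds (11 concentrations, 0.1 nM–20 μM, duplicates) in Tris pH 7 buffer with NaCl, KF, Tween-20, DTT and BGG. After 1 h at 22 °C in the dark plus overnight at 4 °C, anti-MBP Eu-cryptate/streptavidin-XL665 TR-FRET was read; IC50 came from a 4-parameter fit.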

[8] = system: SUDHL10; test: Induction of cytotoxicity (CellTiter-Glo, 5 h), SUDHL10
[9] = Homo sapiens, SU-DHL-5, 5 h, read-out: Cytotox SUDHL5 [M] (median), SUDHL5 cells, cytotoxicity induction, CellTiter-Glo, 5 h incubation, median
[10] = Homo sapiens, SU-DHL10, 5 h, read-out: Cytotox SUDHL10 [M] (median), SUDHL10 cells, cytotoxicity induction, CellTiter-Glo, 5 h incubation, median
[11] = read-out: Cytotox SUDHL5 [M] (median), SUDHL5 cells, cytotoxicity induction, CellTiter-Glo, 5 h incubation, median
[12] = read-out: Cytotox SUDHL10 [M] (median), SUDHL10 cells, cytotoxicity induction, CellTiter-Glo, 5 h incubation, median

Row | Compound | IC50 ([1]; Homo sapiens, SU-DHL-5, 72 h) [M] | EC50 ([2]; Homo sapiens, SU-DHL10, 3 h) [µM] | IC50 ([3]; Homo sapiens, A2780, 72 h) [M] | EC50 ([4]; Homo sapiens, SU-DHL-5, 3 h) [µM] | IC50 ([5]; Homo sapiens, SU-DHL10, 72 h) [M] | IC50 [7] [µM] | EC50 [4] [µM] | IC50 [1] [M] | EC50 [2] [µM] | IC50 [5] [M] | IC50 [6, 9] [M] | IC50 [8, 10] [M] | IC50 [6, 11] [M] | IC50 [8, 12] [M] | IC50 [3] [M]
1 | CCc1c2c(nn1C)COCCCCn1c(C(=O)O)c(CCCOc3cccc4ccccc34)c3ccc(C)c-2c31 (racemic) [Example 153, (rac)-3-Ethyl-2,4-dimethyl-7-[3-(1-naphthyloxy)propyl]-2,10,11,12,13,15-hexahydropyrazolo[4′,3′:9,10][1,6]oxazacycloundecino[8,7,6-hi]indole-8-carboxylic Acid] | 7.96e-07 | 5.12 | 1.52e-05 | 1.7 | 4.09e-06 | 0.0048 | – | – | – | – | 1.65e-06 | 5.1e-06 | – | – | –
2 | CC(C)OCc1nn(C)c2c1-c1cccc3c(CCCOc4cccc5ccccc45)c(C(=O)O)n(c13)CCCCN(C)C2 (single isomer, unassigned) [Example 1-74, 1,14-dimethyl-7-[3-(naphthalen-1-yloxy)propyl]-3-[(propan-2-yloxy)methyl]-10,11,12,13,14,15-hexahydro-1H-pyrazolo[3′,4′:8,9][1,6]diazacycloundecino[10,11,1-hi]indole-8-carboxylic Acid] | 9.62e-06 | 20.3 | 1.91e-05 | – | 1.17e-05 | 0.00479 | 8.87 | – | – | – | – | – | 9.82e-06 | 1.42e-05 | –
3 | CN1CCCn2c(C(=O)O)c(CCCOc3cccc4ccccc34)c3cccc(c32)-c2c(CN3CCOCC3)nn(C)c2C1 (single isomer, unassigned; enantiomer 1) [Example 1-43, (+)-7,9-dimethyl-11-(morpholin-4-ylmethyl)-1-[3-(naphthalen-1-yloxy)propyl]-4,5,6,7,8,9-hexahydropyrazolo[3′,4′:7,8][1,5]diazecino[9,10,1-hi]indole-2-carboxylic Acid (Enantiomer 1)] | 9.58e-06 | 11.1 | 2.48e-05 | 6.57 | 8.34e-06 | 0.00799 | – | – | – | – | 6.9e-06 | – | – | 1.48e-05 | –
4 | Cc1nn(C)c2c1-c1cccc3c(CCCOc4cccc5cc(F)ccc45)c(C(=O)O)n(c13)CCCOC2 (single isomer, unassigned; enantiomer 1) [Example 047, 1-{3-[(6-fluoronaphthalen-1-yl)oxy]propyl}-9,11-dimethyl-5,6,8,9-tetrahydro-4H-pyrazolo[4′,3′:8,9][1,5]oxazecino[7,6,5-hi]indole-2-carboxylic acid-N-ethylethanamine Salt (Enantiomer 1)] | – | – | – | – | – | 0.00286 | 2.96 | 4.41e-06 | 6.66 | 3.61e-06 | – | – | 3.22e-06 | 6.49e-06 | 2.69e-05

Second part, led by results:

Row | IC50 ([1]; Homo sapiens, SU-DHL-5, 72 h) [M] | EC50 ([2]; Homo sapiens, SU-DHL10, 3 h) [µM] | IC50 ([3]; Homo sapiens, A2780, 72 h) [M] | EC50 ([4]; Homo sapiens, SU-DHL-5, 3 h) [µM] | IC50 ([5]; Homo sapiens, SU-DHL10, 72 h) [M] | IC50 [7] [µM] | EC50 [4] [µM] | IC50 [1] [M] | EC50 [2] [µM] | IC50 [5] [M] | Compound | IC50 [6, 9] [M] | IC50 [8, 10] [M] | IC50 [6, 11] [M] | IC50 [8, 12] [M] | IC50 [3] [M]
5 | 1.33e-06 | 3.91 | 1.17e-05 | 2.85 | 5.89e-06 | 0.00334 | – | – | – | – | CCc1c2c(nn1C)CN(C)CCCn1c(C(=O)O)c(CCCOc3cccc4ccccc34)c3ccc(C)c-2c31 (racemic) [Example 144, (rac)-11-ethyl-7,10,12-trimethyl-1-[3-(1-naphthyloxy)propyl]-4,5,6,7,8,10-hexahydropyrazolo[3′,4′:7,8][1,5]diazecino[9,10,1-hi]indole-2-carboxylic Acid] | 2.55e-06 | 5.02e-06 | – | – | –
6 | – | – | 7.24e-06 | – | – | 0.00303 | 1.17 | 1.36e-06 | 1.82 | 1.56e-06 | CN1CCCn2c(C(=O)O)c(CCCOc3cccc4ccccc34)c3cccc(c32)-c2c(COc3ccc(N4CCN(S(=O)(=O)N(C)C)CC4)cc3)nn(C)c2C1 (single isomer, unassigned; enantiomer 1) [Example 1-15, (+)-11-({4-[4-(dimethylsulfamoyl)piperazin-1-yl]phenoxy}methyl)-7,9-dimethyl-1-[3-(naphthalen-1-yloxy)propyl]-4,5,6,7,8,9-hexahydropyrazolo[3′,4′:7,8][1,5]diazecino[9,10,1-hi]indole-2-carboxylic Acid (Enantiomer 1)] | – | – | 1.38e-06 | 1.94e-06 | –
7 | – | – | 1.83e-05 | – | – | 0.000787 | 1.56 | 1.58e-06 | 2.21 | 2.19e-06 | Cn1nc(COc2ccc(N3CCN(C(=O)C4CC4)CC3)cc2)c2c1COCCCCn1c(C(=O)O)c(CCCOc3cccc4ccccc34)c3cccc-2c31 (single isomer, unassigned; enantiomer 1) [Example 1-22, 3-({4-[4-(cyclopropylcarbonyl)piperazin-1-yl]phenoxy}methyl)-1-methyl-7-[3-(naphthalen-1-yloxy)propyl]-1,10,11,12,13,15-hexahydropyrazolo[4′,3′:9,10][1,6]oxazacycloundecino[8,7,6-hi]indole-8-carboxylic Acid (Enantiomer 1)] | – | – | 1.37e-06 | 2.7e-06 | –
8 | – | – | > 3.3e-05 | – | – | 0.00462 | 4.33 | 3.12e-06 | 7.27 | 4.55e-06 | Cc1nn(C)c2c1-c1cccc3c(CCCOc4cccc5ccccc45)c(C(=O)O)n(c13)CCCN(C)C2 (single isomer, unassigned; enantiomer 1) [Example 1-31, 7,9,11-trimethyl-1-[3-(naphthalen-1-yloxy)propyl]-4,5,6,7,8,9-hexahydropyrazolo[3′,4′:7,8][1,5]diazecino[9,10,1-hi]indole-2-carboxylic Acid-N-ethylethanamine Salt (Enantiomer 1)] | – | – | 4.6e-06 | 1.61e-05 | –
9 | – | – | 3.02e-05 | – | – | 0.00172 | 2.44 | 2.54e-06 | 3.84 | 3e-06 | Cc1c2c(nn1C)COCCCCn1c(C(=O)O)c(CCCOc3cccc4ccccc34)c3cccc-2c31 (single isomer, unassigned; enantiomer 1) [Example 1-37, (+)-2,3-dimethyl-7-[3-(naphthalen-1-yloxy)propyl]-2,10,11,12,13,15-hexahydropyrazolo[4′,3′:9,10][1,6]oxazacycloundecino[8,7,6-hi]indole-8-carboxylic Acid (Enantiomer 1)] | – | – | 1.92e-06 | 8.41e-06 | –
10 | – | – | 7.08e-06 | – | – | 0.00143 | 0.776 | 9.89e-07 | 1.74 | 8.61e-07 | CN1CCCn2c(C(=O)O)c(CCCOc3cccc4ccccc34)c3cccc(c32)-c2c(COc3ccc(N4CCN(S(C)(=O)=O)CC4)cc3)nn(C)c2C1 (single isomer, unassigned; enantiomer 1) [Example 1-46, (+)-7,9-dimethyl-11-({4-[4-(methylsulfonyl)piperazin-1-yl]phenoxy}methyl)-1-[3-(naphthalen-1-yloxy)propyl]-4,5,6,7,8,9-hexahydropyrazolo[3′,4′:7,8][1,5]diazecino[9,10,1-hi]indole-2-carboxylic Acid (Enantiomer 1)] | – | – | 1.53e-06 | 2.29e-06 | –
11 | – | – | – | – | 4.45e-06 | 0.000862 | 1.52 | 3.65e-06 | 5.16 | – | Cc1nn(C)c2c1-c1cccc3c(CCCOc4cccc5cc(F)ccc45)c(C(=O)O)n(c13)CCCCOC2 (single isomer, unassigned; enantiomer 1) [Example 019, 7-{3-[(6-fluoronaphthalen-1-yl)oxy]propyl}-1,3-dimethyl-1,10,11,12,13,15-hexahydropyrazolo[4′,3′:9,10][1,6]oxazacycloundecino[8,7,6-hi]indole-8-carboxylic Acid-N-ethylethanamine Salt (Enantiomer 1)] | – | – | 1.68e-06 | 3.76e-06 | > 3.3e-05
